Test results: US20050004185A1, “Polyene polyketides, processes for their production and their use as pharmaceuticals” (priority 2003, published 2005)
In brackets after ≈: the same amount, converted by molar mass. Where two headings read alike, the source gives them in different places.

Tests used:
[1] = tested on: C. glabrata (Cgla); assay: MIC broth microdilution assay (NCCLS M27-A); format: cell-based; details: Nakaseomyces glabratus, read-out: Minimal Inhibitory Concentrations
[2] = tested on: PANC-1; assay: In vitro cytotoxic efficacy (MTT); format: cell-based; details: Homo sapiens, Pancreatic, 96 h
[3] = tested on: S. cerevisiae (Scer); assay: MIC broth microdilution assay (NCCLS M27-A); details: Saccharomyces cerevisiae, read-out: Minimal Inhibitory Concentrations
[4] = tested on: MCF7; assay: In vitro cytotoxic efficacy (MTT); format: cell-based; details: Homo sapiens
[5] = tested on: C. albicans (Ctro); assay: MIC broth microdilution assay (NCCLS M27-A); format: cell-based; details: Candida albicans, read-out: Minimal Inhibitory Concentrations
[6] = tested on: DU-145; assay: In vitro cytotoxic efficacy (MTT); format: cell-based; details: Homo sapiens, Prostate, 96 h
[7] = tested on: HT29; assay: In vitro cytotoxic efficacy (MTT); format: cell-based; details: Homo sapiens
[8] = tested on: LB1319-MEL; assay: In vitro cytotoxic efficacy (MTT); format: cell-based; details: Melanoma, 96 h
[9] = tested on: C. albicans (Calb); assay: MIC broth microdilution assay (NCCLS M27-A); format: cell-based; details: Candida albicans, read-out: Minimal Inhibitory Concentrations
[10] = tested on: PC-3; assay: In vitro cytotoxic efficacy (MTT); details: Homo sapiens, PC-3, 96 h
[11] = tested on: NCI-H460; assay: In vitro cytotoxic efficacy (MTT); format: cell-based; details: Homo sapiens
[12] = tested on: SNB-19; assay: In vitro cytotoxic efficacy (MTT); format: cell-based; details: Homo sapiens
[13] = tested on: A498; assay: In vitro cytotoxic efficacy (MTT); details: Homo sapiens, A498, 96 h
[14] = tested on: A549/ATCC; assay: In vitro cytotoxic efficacy (MTT); format: cell-based; details: Homo sapiens
[15] = tested on: OVCAR-3; assay: In vitro cytotoxic efficacy (MTT); format: cell-based; details: Homo sapiens, Ovarian, 96 h
[16] = tested on: Candida sp. (Cflu); assay: MIC broth microdilution assay (NCCLS M27-A); format: cell-based; details: read-out: Minimal Inhibitory Concentrations
[17] = tested on: MDA-MB-231/ATCC; assay: In vitro cytotoxic efficacy (MTT); details: Homo sapiens, MDA-MB-231, 96 h
[18] = tested on: SK-OV3; assay: In vitro cytotoxic efficacy (MTT); format: cell-based; details: Homo sapiens
[19] = tested on: MOLT-4; assay: In vitro cytotoxic efficacy (MTT); format: cell-based; details: Homo sapiens, Leukemia, 96 h
[20] = tested on: OVCAR-4; assay: In vitro cytotoxic efficacy (MTT); format: cell-based; details: Homo sapiens, Ovarian, 96 h
[21] = tested on: RXF 393; assay: In vitro cytotoxic efficacy (MTT); format: cell-based; details: Homo sapiens, Renal, 96 h
[22] = tested on: UO-31; assay: In vitro cytotoxic efficacy (MTT); format: cell-based; details: Homo sapiens, Renal, 96 h
[23] = tested on: K562; assay: In vitro cytotoxic efficacy (MTT); format: cell-based; details: Homo sapiens, Leukemia, 96 h
[24] = tested on: SNB-75; assay: In vitro cytotoxic efficacy (MTT); format: cell-based; details: Homo sapiens, CNS, 96 h
[25] = tested on: 786-0; assay: In vitro cytotoxic efficacy (MTT); format: cell-based; details: Homo sapiens, Renal, 96 h
[26] = tested on: IGROV1; assay: In vitro cytotoxic efficacy (MTT); format: cell-based; details: Homo sapiens, IGROV-1, Ovarian, 96 h
[27] = tested on: SK-MEL-5; assay: In vitro cytotoxic efficacy (MTT); format: cell-based; details: Homo sapiens, Melanoma, 96 h
[28] = tested on: M14; assay: In vitro cytotoxic efficacy (MTT); format: cell-based; details: Homo sapiens, Melanoma, 96 h
[29] = tested on: UACC-257; assay: In vitro cytotoxic efficacy (MTT); format: cell-based; details: Homo sapiens, Melanoma, 96 h
[30] = tested on: OVCAR-5; assay: In vitro cytotoxic efficacy (MTT); format: cell-based; details: Homo sapiens, Ovarian, 96 h
[31] = tested on: LOX IMVI; assay: In vitro cytotoxic efficacy (MTT); format: cell-based; details: Homo sapiens, Melanoma, 96 h
[32] = tested on: RPMI-8226; assay: In vitro cytotoxic efficacy (MTT); format: cell-based; details: Homo sapiens, Leukemia, 96 h
[33] = tested on: BT-549; assay: In vitro cytotoxic efficacy (MTT); format: cell-based; details: Homo sapiens, Breast, 96 h
[34] = tested on: NCI/ADR-RES; assay: In vitro cytotoxic efficacy (MTT); format: cell-based; details: Homo sapiens, Breast, 96 h
[35] = tested on: EKVX; assay: In vitro cytotoxic efficacy (MTT); format: cell-based; details: Homo sapiens, Non-small cell lung, 96 h
[36] = tested on: SW-620; assay: In vitro cytotoxic efficacy (MTT); format: cell-based; details: Homo sapiens, Colon, 96 h
[37] = tested on: NCI-H522; assay: In vitro cytotoxic efficacy (MTT); format: cell-based; details: Homo sapiens, Non-small cell lung, 96 h
[38] = tested on: MDA-MB-435; assay: In vitro cytotoxic efficacy (MTT); format: cell-based; details: Homo sapiens, Breast, 96 h
[39] = tested on: SK-MEL-28; assay: In vitro cytotoxic efficacy (MTT); format: cell-based; details: Homo sapiens, Melanoma, 96 h
[40] = tested on: SF-295; assay: In vitro cytotoxic efficacy (MTT); format: cell-based; details: Homo sapiens, CNS, 96 h
[41] = tested on: SK-MEL-2; assay: In vitro cytotoxic efficacy (MTT); format: cell-based; details: Homo sapiens, Melanoma, 96 h
[42] = tested on: TK-10; assay: In vitro cytotoxic efficacy (MTT); format: cell-based; details: Homo sapiens, Renal, 96 h
[43] = tested on: SF-539; assay: In vitro cytotoxic efficacy (MTT); format: cell-based; details: Homo sapiens, CNS, 96 h
[44] = tested on: HCC-2998; assay: In vitro cytotoxic efficacy (MTT); format: cell-based; details: Homo sapiens, Colon, 96 h
[45] = tested on: CAKI-1; assay: In vitro cytotoxic efficacy (MTT); format: cell-based; details: Homo sapiens, Renal, 96 h
[46] = tested on: SR; assay: In vitro cytotoxic efficacy (MTT); format: cell-based; details: Homo sapiens, Leukemia, 96 h
[47] = tested on: HCT-116; assay: In vitro cytotoxic efficacy (MTT); details: Homo sapiens, HCT-116, 96 h
[48] = tested on: UACC; assay: In vitro cytotoxic efficacy (MTT); format: cell-based; details: 96 h
[49] = tested on: HCT-15; assay: In vitro cytotoxic efficacy (MTT); format: cell-based; details: Homo sapiens, Colon, 96 h
[50] = tested on: OVCAR-8; assay: In vitro cytotoxic efficacy (MTT); format: cell-based; details: Homo sapiens, Ovarian, 96 h
[51] = tested on: HOP-92; assay: In vitro cytotoxic efficacy (MTT); format: cell-based; details: Homo sapiens, Non-small cell lung, 96 h
[52] = tested on: KM12; assay: In vitro cytotoxic efficacy (MTT); format: cell-based; details: Homo sapiens, Colon, 96 h
[53] = tested on: SN12C; assay: In vitro cytotoxic efficacy (MTT); format: cell-based; details: Homo sapiens, Renal, 96 h
[54] = tested on: COLO 205; assay: In vitro cytotoxic efficacy (MTT); format: cell-based; details: Homo sapiens, Colon, 96 h
[55] = tested on: U-251; assay: In vitro cytotoxic efficacy (MTT); format: cell-based; details: Homo sapiens, CNS, 96 h
[56] = tested on: SF-268; assay: In vitro cytotoxic efficacy (MTT); format: cell-based; details: Homo sapiens, CNS, 96 h
[57] = tested on: T-47D; assay: In vitro cytotoxic efficacy (MTT); format: cell-based; details: Homo sapiens, T47D, Breast, 96 h
[58] = tested on: CCRF-CEM; assay: In vitro cytotoxic efficacy (MTT); format: cell-based; details: Homo sapiens, Leukemia, 96 h
[59] = tested on: HL-60 (TB); assay: In vitro cytotoxic efficacy (MTT); format: cell-based; details: Homo sapiens, Leukemia, 96 h

`C\C(=C/C=C/C=C/CC/C=C/C(C)C(O)C(C)C(O)/C=C/C=C/C=C/C=C/C=C/C=C/CC(OS(=O)(=O)O)C(C)C(=O)CC(O)CC(O)/C=C/CC(O)CC(O)CC(O)/C=C/CC(O)CC(O)/C=C/CC(O)CC(O)CCCNC(=N)N)C(=O)O` (stereo not shown) [Compound 1] gave an MIC ([1]; 24 hrs) of 4 µg/mL (≈ 3.28 µM), an IC50 [2] of 15 µM and an MIC ([3]; 24 h) of 4 µg/mL (≈ 3.28 µM). For the same compound, the IC50 ([4]; Breast, MCF7, 96 h, MTT, read-out: IC50) was 18 µM, the MIC ([5]; C. albicans (Ctro), 24 hrs) was 4 µg/mL (≈ 3.28 µM) and the IC50 [6] was 8 µM. The IC50 ([7]; HT-29, Colon, HT29, 96 h, MTT, read-out: IC50) was 23 µM, the IC50 [8] was 11 µM and the MIC ([9]; 24 hrs) was 4 µg/mL (≈ 3.28 µM). For the same compound, the IC50 [10] was 10 µM, the IC50 ([11]; Non-small cell lung, NCI-H460, 96 h, MTT, read-out: IC50) was 13 µM and the IC50 ([12]; CNS, SNB-19, 96 h, MTT, read-out: IC50) was 10 µM. For the same compound, the IC50 [13] was 13 µM, the IC50 ([14]; Non-small cell lung, A549/ATCC, 96 h, MTT, read-out: IC50) was 12 µM and the IC50 [15] was 12 µM. The MIC ([16]; 24 hrs) was 8 µg/mL (≈ 6.57 µM), the IC50 [17] was 12 µM and the IC50 ([18]; SK-OV-3, Ovarian, SK-OV3, 96 h, MTT, read-out: IC50) was 15 µM.
`C\C(=C/C=C/C=C/CC/C=C/C(C)C(O)C(C)C(O)/C=C/C=C/C=C/C=C/C=C/C=C/CC(O)C(C)C(=O)CC(O)CC(O)/C=C/CC(O)CC(O)CC(O)/C=C/CC(O)CC(O)/C=C/CC(O)CC(O)CCCNC(=N)N)C(=O)O` (stereo not shown) [Compound 2] was tested, and the MIC ([1]; 48 hrs) was 4 µg/mL (≈ 3.51 µM), the IC50 [19] was > 25 µM and the IC50 [20] was > 25 µM. The IC50 [21] was 0.4 µM, the IC50 [22] was 8 µM and the IC50 [23] was 8 µM. It also gave an IC50 [24] of 10 µM, an IC50 [25] of 8 µM and an MIC ([3]; 48 h) of 4 µg/mL (≈ 3.51 µM). The IC50 ([4]; MCF7, 96 h) was 0.3 µM, the IC50 [26] was 0.6 µM and the MIC ([5]; 48 h) was 4 µg/mL (≈ 3.51 µM). The IC50 [27] was 2 µM, the IC50 [28] was 0.5 µM and the IC50 ([7]; HT-29, 96 h) was 4 µM. It also gave an IC50 [29] of 5 µM, an IC50 [30] of 6 µM and an IC50 [31] of 6 µM. For the same compound, the IC50 [32] was 6 µM, the MIC ([9]; 48 hrs) was 4 µg/mL (≈ 3.51 µM) and the IC50 [33] was 0.9 µM. For the same compound, the IC50 [34] was 24 µM, the IC50 [35] was 8 µM and the IC50 [36] was 1 µM. It also gave an IC50 [37] of 2 µM, an IC50 [10] of 4 µM and an IC50 [38] of 0.9 µM. For the same compound, the IC50 [39] was 13 µM, the IC50 ([11]; NCI-H460, 96 h) was 2 µM and the IC50 [40] was 4 µM. For the same compound, the IC50 [41] was 3 µM, the IC50 [42] was 7 µM and the IC50 ([12]; SNB-19, 96 h) was > 25 µM. For the same compound, the IC50 [43] was 3 µM, the IC50 [44] was 0.1 µM and the IC50 [45] was 2 µM. For the same compound, the IC50 [13] was 6 µM, the IC50 [46] was 1 µM and the IC50 [47] was 2 µM. It also gave an IC50 [48] of 8 µM, an IC50 [49] of 8 µM and an IC50 ([14]; A549, 96 h) of 7 µM. The IC50 [50] was 5 µM, the MIC ([16]; 48 hrs) was 8 µg/mL (≈ 7.03 µM) and the IC50 [51] was > 25 µM. It also gave an IC50 [52] of 0.8 µM, an IC50 [17] of 9 µM and an IC50 [53] of 7 µM. It also gave an IC50 [54] of 7 µM, an IC50 [55] of 6 µM and an IC50 [56] of 4 µM. For the same compound, the IC50 [57] was > 25 µM, the IC50 ([18]; SK-OV-3, 96 h) was > 25 µM and the IC50 [58] was > 25 µM. It also gave an IC50 [59] of 17 µM.
